Reference: patent US9504669B2, “Spliceostatin analogs and methods for their preparation” (PFIZER INC., priority 2012, dated 2016)
Structures can show the parent of a compound that is named as a salt.

How the values were obtained:
Assay type in all cases: cell-based
[1] = tested on: MDA-MB-361-DYT2 (breast cancer) cells; experiment: In vitro cell assay (MTS cell viability), MDA-MB-361-DYT2; conditions: 96 h, free compounds (natural products and synthetic analogs); cell viability 96 hours after treatment
How it was run: (§1)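 Cells seeded 24 h, then treated with antibody-drug conjugates or free drug, 3-fold serial dilutions at 10 concentrations in duplicate. Viability by MTS at 96 h as percent of untreated control; IC50 from four-parameter logistic fit.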

[2] = tested on: BT474 (breast cancer) cells; experiment: In vitro cell assay (MTS cell viability), BT474; conditions: Homo sapiens, BT-474; free compounds (natural products and synthetic analogs); cell viability 96 hours after treatment
Protocol: Target expressing (BT474 (breast cancer), N87 (gastric cancer), HCC1954 (breast cancer), MDA-MB-361-DYT2 (breast cancer)) or non-expressing (MDA-MB-468) cells were seeded in 96-well cell culture plates for 24 hours before treatment. Cells were treated with 3-fold serially diluted antibody-drug conjugates or free compounds (i.e., no antibody conjugated to the drug) in duplicate at 10 concentrations. Cell viability was determined by CellTiter 96® AQueous One Solution Cell Proliferation MTS Assay (Promega, Madison Wis.) 96 hours after treatment. Relative cell viability was determined as percentage of untreated control. IC50 values were calculated using a four parameter logistic model #203 with XLfit v4.2 (IDBS, Guildford, Surry, UK). The potency ranged upward from 0.0002 nm. Similar procedures and techniques were employed.

[3] = tested on: N87 (gastric cancer) cells; experiment: In vitro cell assay (MTS cell viability), N87; conditions: 96 h, free compounds (natural products and synthetic analogs); cell viability 96 hours after treatment
How it was run: as §1

Compound	IC50 [1]	IC50 [2]	IC50 [3]
CC(/C=C/[C@@H]1C[C@]2(CO2)C[C@@H](CC(N)=O)O1)=C\C[C@@H]1O[C@H](C)[C@H](NC(=O)/C=C\[C@H](C)OC(=O)N2CCN(C)CC2)C[C@@H]1C [#B137, (2S,3Z)-5-{[(2R,3R,5S,6S)-6-{(2E,4E)-5-[(3S,5S,7S)-7-(2-amino-2-oxoethyl)-1,6-dioxaspiro[2.5]oct-5-yl]-3-methylpenta-2,4-dien-1-yl}-2,5-dimethyltetrahydro-2H-pyran-3-yl]amino}-5-oxopent-3-en-2-yl-4-methylpiperazine-1-carboxylate]	10.3 nM	1.8 nM	5.59 nM
CC(=O)O[C@@H](C)/C=C\C(=O)N[C@@H]1C[C@H](C)[C@H](C/C=C(C)/C=C/[C@H]2O[C@H](CC(=O)NCc3ccc(N)cc3)C[C@@]3(CO3)[C@@H]2O)O[C@@H]1C [#B11, (2S,3Z)-5-{[(2R,3R,5S,6S)-6-{(2E,4E)-5-[(3R,4R,5R,7S)-7-{2-[(4-aminobenzyl)amino]-2-oxoethyl}-4-hydroxy-1,6-dioxaspiro[2.5]oct-5-yl]-3-methylpenta-2,4-dien-1-yl}-2,5-dimethyltetrahydro-2H-pyran-3-yl]amino}-5-oxopent-3-en-2-yl acetate]	6.71 nM	3.42 nM	1.61 nM
CC(=O)O[C@@H](C)/C=C\C(=O)N[C@@H]1C[C@H](C)[C@H](C/C=C(C)/C=C/[C@H]2O[C@H](CC(=O)NCc3ccc(S(N)(=O)=O)cc3)C[C@@]3(CO3)[C@@H]2O)O[C@@H]1C [#B10, (2S,3Z)-5-{[(2R,3R,5S,6S)-6-{(2E,4E)-5-[(3R,4R,5R,7S)-4-hydroxy-7-{2-oxo-2-[(4-sulfamoylbenzyl)amino]ethyl}-1,6-dioxaspiro[2.5]oct-5-yl]-3-methylpenta-2,4-dien-1-yl}-2,5-dimethyltetrahydro-2H-pyran-3-yl]amino}-5-oxopent-3-en-2-yl acetate]	77.5 nM	43.5 nM	12.1 nM
CC(=O)O[C@@H](C)/C=C\C(=O)N[C@@H]1C[C@H](C)[C@H](C/C=C(C)/C=C/[C@H]2O[C@H](CC(=O)N3CCN(C)CC3)C[C@@]3(CO3)[C@@H]2O)O[C@@H]1C [#B13, (2S,3Z)-5-({(2R,3R,5S,6S)-6-[(2E,4E)-5-{(3R,4R,5R,7S)-4-hydroxy-7-[2-(4-methylpiperazin-1-yl)-2-oxoethyl]-1,6-dioxaspiro[2.5]oct-5-yl}-3-methylpenta-2,4-dien-1-yl]-2,5-dimethyltetrahydro-2H-pyran-3-yl}amino)-5-oxopent-3-en-2-yl acetate, acetate salt]	1.93 nM	0.68 nM	0.99 nM
CC(=O)O[C@@H](C)/C=C\C(=O)N[C@@H]1C[C@H](C)[C@H](C/C=C(C)/C=C/[C@@H]2C[C@]3(CO3)C[C@@H](CC(=O)NCc3ccccc3)O2)O[C@@H]1C [#B101, (2S,3Z)-5-({(2R,3R,5S,6S)-6-[(2E,4E)-5-{(3S,5S,7S)-7-[2-(benzylamino)-2-oxoethyl]-1,6-dioxaspiro[2.5]oct-5-yl}-3-methylpenta-2,4-dien-1-yl]-2,5-dimethyltetrahydro-2H-pyran-3-yl}amino)-5-oxopent-3-en-2-yl acetate]	34.8 nM	25.6 nM	10.4 nM
CC(=O)O[C@@H](C)/C=C\C(=O)N[C@@H]1C[C@H](C)[C@H](C/C=C(C)/C=C/[C@@H]2C[C@]3(CO3)C[C@@H](CC(=O)NCc3ccc(S(=O)(=O)N(C)C)cc3)O2)O[C@@H]1C [#B98, (2S,3Z)-5-{[(2R,3R,5S,6S)-6-{(2E,4E)-5-[(3S,5S,7S)-7-(2-{[4-(dimethylsulfamoyl)benzyl]amino}-2-oxoethyl)-1,6-dioxaspiro[2.5]oct-5-yl]-3-methylpenta-2,4-dien-1-yl}-2,5-dimethyltetrahydro-2H-pyran-3-yl]amino}-5-oxopent-3-en-2-yl acetate]	8.7 nM	5.75 nM	2.55 nM
CC(=O)O[C@@H](C)/C=C\C(=O)N[C@@H]1C[C@H](C)[C@H](C/C=C(C)/C=C/[C@H]2O[C@H](CC(=O)N(C)Cc3ccc(S(=O)(=O)N(C)C)cc3)C[C@@]3(CO3)[C@@H]2O)O[C@@H]1C [#B91, (2S,3Z)-5-{[(2R,3R,5S,6S)-6-{(2E,4E)-5-[(3R,4R,5R,7S)-7-(2-{[4-(dimethylsulfamoyl)benzyl](methyl)amino}-2-oxoethyl)-4-hydroxy-1,6-dioxaspiro[2.5]oct-5-yl]-3-methylpenta-2,4-dien-1-yl}-2,5-dimethyltetrahydro-2H-pyran-3-yl]amino}-5-oxopent-3-en-2-yl acetate]	3.78 nM	3.02 nM	0.783 nM
CNc1cccc(CNC(=O)C[C@@H]2C[C@@]3(CO3)[C@H](O)[C@@H](/C=C/C(C)=C/C[C@@H]3O[C@H](C)[C@H](NC(=O)/C=C\[C@H](C)OC(C)=O)C[C@@H]3C)O2)c1 [#B83, (2S,3Z)-5-{[(2R,3R,5S,6S)-6-{(2E,4E)-5-[(3R,4R,5R,7S)-4-hydroxy-7-(2-{[3-(methylamino)benzyl]amino}-2-oxoethyl)-1,6-dioxaspiro[2.5]oct-5-yl]-3-methylpenta-2,4-dien-1-yl}-2,5-dimethyltetrahydro-2H-pyran-3-yl]amino}-5-oxopent-3-en-2-yl acetate]	2.59 nM	1.45 nM	1.05 nM
CC(=O)O[C@@H](C)/C=C\C(=O)N[C@@H]1C[C@H](C)[C@H](C/C=C(C)/C=C/[C@H]2O[C@H](CC(=O)N3CCCCC3)C[C@@]3(CO3)[C@@H]2O)O[C@@H]1C [#B72, (2S,3Z)-5-({(2R,3R,5S,6S)-6-[(2E,4E)-5-{(3R,4R,5R,7S)-4-hydroxy-7-[2-oxo-2-(piperidin-1-yl)ethyl]-1,6-dioxaspiro[2.5]oct-5-yl}-3-methylpenta-2,4-dien-1-yl]-2,5-dimethyltetrahydro-2H-pyran-3-yl}amino)-5-oxopent-3-en-2-yl acetate]	1.16 nM	0.607 nM	0.481 nM
CCCNC(=O)C[C@@H]1C[C@@]2(CO2)[C@H](O)[C@@H](/C=C/C(C)=C/C[C@@H]2O[C@H](C)[C@H](NC(=O)/C=C\[C@H](C)OC(=O)C(C)C)C[C@@H]2C)O1 [#B71, (2S,3Z)-5-({(2R,3R,5S,6S)-6-[(2E,4E)-5-{(3R,4R,5R,7S)-4-hydroxy-7-[2-oxo-2-(propylamino)ethyl]-1,6-dioxaspiro[2.5]oct-5-yl}-3-methylpenta-2,4-dien-1-yl]-2,5-dimethyltetrahydro-2H-pyran-3-yl}amino)-5-oxopent-3-en-2-yl 2-methylpropanoate]	1.36 nM	1.08 nM	0.451 nM
CC(=O)O[C@@H](C)/C=C\C(=O)N[C@@H]1C[C@H](C)[C@H](C/C=C(C)/C=C/[C@@H]2C[C@]3(CO3)C[C@@H](CC(=O)NC(C)(C)C(=O)O)O2)O[C@@H]1C [#B79, N-{[(3S,5S,7S)-7-{(1E,3E)-5-[(2S,3S,5R,6R)-5-{[(2Z,4S)-4-(acetyloxy)pent-2-enoyl]amino}-3,6-dimethyltetrahydro-2H-pyran-2-yl]-3-methylpenta-1,3-dien-1-yl}-1,6-dioxaspiro[2.5]oct-5-yl]acetyl}-2-methylalanine]	1.31 nM	0.723 nM	0.423 nM
